Experimental data from US10576059B2, “Substituted phenylpyrrolecarboxamides with therapeutic activity in HIV” (New York Blood Center, Inc., priority 2014, dated 2020).
Where two headings read alike, the source gives them in different places.

Key:
HIV-1 Integrase = biological target: T1, HIV-1 Integrase (Human immunodeficiency virus type 1 group M subtype B, UniProt P04585); test: HIV-1 Integrase Assay; format: biochemical; settings: HIV-1 Integrase Assay Kit from ExpressBio
T1 construct: HIV-1 Integrase Assay Kit from ExpressBio; purchased ExpressBio (Thurnmont, Md.)
Procedure: HIV-1 Integrase was performed as per the protocol in the HIV-1 Integrase Assay Kit from ExpressBio (Thurnmont, Md.). (See Table 3)

[1] = tested on: laboratory-adapted HIV-1 strains; test: microbe, parasite or virus in culture; format: cell-based
MT-2 cells = test: Cytotoxicity in MT-2 cells (XTT); format: cell-based; settings: 4 days
Procedure: Cytotoxicity of test compounds in MT-2 cells was measured a by colorimetric method using XTT [(sodium 3′-(1-(phenylamino)-carbonyl)-3,4-tetrazolium-bis(4-methoxy-6-nitro) benzenesulfonic acid hydrate)] (PolySciences) as previously described^7. Briefly, 100 μl of a test compound at graded concentrations was added to an equal volume of cells (1×10^5 cells/ml) in 96 well plates followed by incubation at 37° C. for 4 days, which ran parallel to the neutralization assay in MT-2. Following the addition of XTT the soluble intracellular formazan was quantitated colorimetrically at 450 nm 4 h later. […] (See Table 4)

PBMC = test: Cytotoxicity in PBMC (XTT); format: cell-based; settings: 7 days
Procedure: For the PBMC toxicity assay we used 5×10^5 cells/ml and the cytotoxicity of the compounds was measured after 7 days of incubation as previously reported^8. Following the addition of XTT the soluble intracellular formazan was quantitated colorimetrically at 450 nm 4 h later. The percent of cytotoxicity and the CC50 values were calculated as above. (See Table 4)

[2] = tested on: lab-adapted and primary HIV-1 isolates; settings: read-out: IC50 (μm); Laboratory strain BaL, subtype B, PBMC, co-receptor R5
Procedure: (§1) PBMCs were isolated from the blood of healthy donors at the New York Blood Center by standard density gradient centrifugation using Histopaque-1077 (Sigma-Aldrich). The cells were cultured at 37° C. for 2 hr. […] The PHA-stimulated cells (5×10^4 cells/well) were infected with lab-adapted and primary HIV-1 isolates at 500 TCID50 (0.01 MOI) in the absence or presence of inhibitors at graded concentrations. Culture media were replaced every 3 days with fresh media. The supernatants were collected 7 days post-infection and tested for p24 antigen by ELISA. The percent inhibition of p24 production and IC50 values were calculated by the GraphPad Prism software.

[3] = tested on: panel of HIV-1 ENV-pseudoviruses (subtype A, A/D, A2/D, A/E, A/G, B, C and D); test: microbe, parasite or virus in culture; format: cell-based
[4] = tested on: lab-adapted and primary HIV-1 isolates; test: microbe, parasite or virus in culture; settings: Human immunodeficiency virus 1, PBMC
Procedure: as §1

[5] = tested on: cell-to-cell fusion mediated by HIV-1 (HIV-1HXB2 Env); test: microbe, parasite or virus in culture; format: cell-based; settings: Human immunodeficiency virus 1; MAGI-CCR5 and HL 2/3 cells, 24 h, β-gal readout
Procedure: To assess the ability of NBD-compounds to block cell-to-cell fusion mediated by HIV-1 we performed cell fusion assay as previously described 3^1-3 with some modifications. […] Following fusion of the two cell lines Tat induce the expression of β-gal enzyme. […] The percent inhibition and the IC50 values were calculated using the GraphPad Prism software.

[6] = Human immunodeficiency virus 1, TZM-bl, read-out: IC50 (μM) ± S.D., subtype A2/D, NIH # 11906, ENV QG393.60M.ENV.B7
[7] = Human immunodeficiency virus 1, TZM-bl, read-out: IC50 (μM) ± S.D., subtype A, NIH # 11889, ENV QB726.70M.ENV.B3
[8] = Human immunodeficiency virus 1, TZM-bl, read-out: IC50 (μM) ± S.D., subtype B, ENV B41
[9] = Human immunodeficiency virus 1, TZM-bl, read-out: IC50 (μM) ± S.D., subtype B, NIH # 11018, ENV QH0692, clone 42
[10] = Human immunodeficiency virus 1, TZM-bl, read-out: IC50 (μM) ± S.D., subtype B, NIH # 11022, ENV PVO, clone 4
[11] = Human immunodeficiency virus 1, TZM-bl, read-out: IC50 (μM) ± S.D., subtype B, NIH # 11035, ENV pREJO4541 clone 67
[12] = Human immunodeficiency virus 1, TZM-bl, read-out: IC50 (μM) ± S.D., subtype C, NIH # 11307, ENV Du172, clone 17
[13] = Human immunodeficiency virus 1, TZM-bl, read-out: IC50 (μM) ± S.D., subtype C, NIH # 11311, ENV ZM233M.PB6
[14] = Human immunodeficiency virus 1, TZM-bl, read-out: IC50 (μM) ± S.D., subtype C, NIH # 11313, ENV ZM53M.PB12
[15] = Human immunodeficiency virus 1, TZM-bl, read-out: IC50 (μM) ± S.D., subtype D, NIH # 11918, ENV QD435.100M.ENV.E1
[16] = Human immunodeficiency virus 1, TZM-bl, read-out: IC50 (μM) ± S.D., subtype A, NIH # 11888, ENV QB726.70M.ENV.C4
[17] = Human immunodeficiency virus 1, TZM-bl, read-out: IC50 (μM) ± S.D., subtype A/E (potential), NIH # 11603, ENV CRF01_AE clone 269
[18] = Human immunodeficiency virus 1, TZM-bl, read-out: IC50 (μM) ± S.D., subtype A/G, NIH # 11605, ENV CRF02_AG clone 278

For CC1(C)CC(NC(=O)C(=O)Nc2ccc(Cl)cc2)CC(C)(C)N1 [NBD-556], the IC50 (HIV-1 Integrase) was > 200 µM, the IC50 ([1]; Laboratory strain SF2, subtype B, MT-2, co-receptor R5X4, read-out: IC50 (μm)) was 118000 nM and the CC50 (MT-2 cells) was > 280000 nM. The CC50 (PBMC) was > 280000 nM and the IC50 [2] was 118000 nM.

Cc1nc(C(NC(=O)c2ccc(-c3ccc(Cl)cc3)[nH]2)C2CCCCN2)sc1CO (centres unmarked) [Compound 15] showed an IC50 [3, 6] of 1.7 ± 0.2 µM, an IC50 [3, 7] of 1.5 ± 0.9 µM and an IC50 ([3]; Human immunodeficiency virus 1, TZM-bl, read-out: IC50 (μM) ± S.D., subtype A/G, NIH # 11602, ENV CRF02_AG clone 266) of 1.6 ± 0.5 µM. It also gave an IC50 [3, 8] of 1.1 ± 0.1 µM, an IC50 [3, 9] of 0.7 ± 0.2 µM and an IC50 [3, 10] of 1.7 ± 0.1 µM. For the same compound, the IC50 ([3]; Human immunodeficiency virus 1, TZM-bl, read-out: IC50 (μM) ± S.D., subtype B, NIH # 11023, ENV TRO, clone 11) was 1.3 ± 0.2 µM, the IC50 [3, 11] was 1.8 ± 0.2 µM and the IC50 [3, 12] was 1.5 ± 0.3 µM. For the same compound, the IC50 [3, 13] was 1.4 ± 0.2 µM, the IC50 [3, 14] was 1.3 ± 0.2 µM and the IC50 [3, 15] was 4 ± 0.8 µM. For the same compound, the IC50 ([3]; read-out: IC50 (μM) ± S.D., subtype B, NIH # 11058, ENV SC422661.8) was 0.6 ± 0.1 µM, the IC50 ([3]; subtype A, ENV BG505-T332N, read-out: IC50 (μM) ± S.D.) was 2.4 ± 1 µM and the IC50 ([3]; subtype D, NIH # 11912, ENV QA013.701.ENV.M12, read-out: IC50 (μM) ± S.D.) was 2.4 ± 0.2 µM. It also gave an IC50 ([1]; Human immunodeficiency virus 1, MT2, read-out: IC50 (μm), Laboratory strain RF, subtype B, MT-2, co-receptor R5X4) of 7300 ± 600 nM, a CC50 (PBMC) of ~36000 nM and an IC50 ([4]; read-out: IC50 (μm), Laboratory strain BaL, subtype B, PBMC, co-receptor R5) of 3700 ± 400 nM. It also gave an IC50 ([4]; read-out: IC50 (μm), Primary isolate 93TH060, subtype E, PBMC, co-receptor R5) of 5500 ± 1200 nM.

For Cc1nc(C(CN)NC(=O)c2ccc(-c3ccc(Cl)cc3)[nH]2)sc1CO (single isomer, unassigned) [Compound 39], the IC50 (HIV-1 Integrase) was > 100 µM.

For Cc1nc(C(NC(=O)c2ccc(-c3ccc(Cl)cc3)[nH]2)C2CCCCN2)sc1CO (single isomer, unassigned) [Compound 17], the IC50 [3, 6] was 0.8 ± 0.3 µM, the IC50 ([3]; Human immunodeficiency virus 1, TZM-bl, read-out: IC50 (μM) ± S.D., subtype A, NIH # 11887, ENV Q259env.w6) was 1.6 ± 0.1 µM and the IC50 [3, 16] was 1.3 ± 0.3 µM. The IC50 [3, 7] was 1.3 ± 0.4 µM, the IC50 ([3]; Human immunodeficiency virus 1, TZM-bl, read-out: IC50 (μM) ± S.D., subtype A, NIH # 11890, ENV QF495.23M.ENV.A1) was 1.3 ± 0.4 µM and the IC50 ([3]; Human immunodeficiency virus 1, TZM-bl, read-out: IC50 (μM) ± S.D., subtype A, NIH # 11891, ENV QF495.23M.ENV.A3) was 0.88 ± 0.4 µM. For the same compound, the IC50 ([3]; Human immunodeficiency virus 1, TZM-bl, read-out: IC50 (μM) ± S.D., subtype A, NIH # 11892, ENV QF495.23M.ENV.B2) was 0.6 ± 0.4 µM, the IC50 ([3]; Human immunodeficiency virus 1, TZM-bl, read-out: IC50 (μM) ± S.D., subtype A/D, NIH # 11901, ENV QA790.2041.ENV.A4) was 1.4 ± 0.05 µM and the IC50 ([3]; Human immunodeficiency virus 1, TZM-bl, read-out: IC50 (μM) ± S.D., subtype A/D, NIH # 11903, ENV QA790.2041.ENV.C8) was 1.6 ± 0.2 µM. It also gave an IC50 [3, 17] of 1.5 ± 0.3 µM, an IC50 ([3]; Human immunodeficiency virus 1, TZM-bl, read-out: IC50 (μM) ± S.D., subtype A/G, NIH # 11601, ENV CRF02 AG clone 263) of 1.4 ± 0.3 µM and an IC50 [3, 18] of 1.3 ± 0.5 µM. It also gave an IC50 [3, 8] of 0.68 ± 0.1 µM, an IC50 [3, 9] of 0.52 ± 0.1 µM and an IC50 [3, 10] of 1.9 ± 0.1 µM. The IC50 ([3]; Human immunodeficiency virus 1, TZM-bl, read-out: IC50 (μM) ± S.D., subtype B, NIH # 11033, ENV pWITO4160 clone 33) was 1.7 ± 0.1 µM, the IC50 [3, 11] was 1.6 ± 0.3 µM and the IC50 ([3]; Human immunodeficiency virus 1, TZM-bl, read-out: IC50 (μM) ± S.D., subtype B, NIH # 11038, ENV pCAAN5342 clone A2) was 0.6 ± 0.07 µM. The IC50 [3, 12] was 1.9 ± 0.5 µM, the IC50 [3, 13] was 1.3 ± 0.1 µM and the IC50 [3, 14] was 1.5 ± 0.2 µM. For the same compound, the IC50 ([3]; Human immunodeficiency virus 1, TZM-bl, read-out: IC50 (μM) ± S.D., subtype D, NIH # 11916, ENV QD435.100M.ENV.B5) was 1.7 ± 0.5 µM, the IC50 [3, 15] was 3.7 ± 0.1 µM and the IC50 [5] was 10.8 µM.

With Cc1nc(C(NC(=O)c2ccc(-c3ccc(Cl)cc3)[nH]2)C2CCCCN2)sc1CO (single isomer, unassigned) [Compound 19] the IC50 [3, 16] was 1.5 ± 0.6 µM, the IC50 [3, 17] was 1.7 ± 0.9 µM and the IC50 [3, 18] was 1.8 ± 0.2 µM. It also gave an IC50 ([3]; Human immunodeficiency virus 1, TZM-bl, read-out: IC50 (μM) ± S.D., subtype B, NIH # 11578, ENV pWEAUd15.410.5017) of 1.7 ± 0.03 µM, an IC50 ([3]; Human immunodeficiency virus 1, TZM-bl, read-out: IC50 (μM) ± S.D., subtype C, NIH # 11310, ENV ZM214M.PL15) of 1.7 ± 0.6 µM and an IC50 ([3]; Human immunodeficiency virus 1, TZM-bl, read-out: IC50 (μM) ± S.D., subtype C, NIH # 11314, ENV ZM109F.PB4) of 1.9 ± 0.3 µM. For the same compound, the IC50 ([3]; Human immunodeficiency virus 1, TZM-bl, read-out: IC50 (μM) ± S.D., subtype D, NIH # 11912, ENV QA013.701.ENV.M12) was 1.7 ± 0.2 µM, the IC50 ([3]; read-out: IC50 (μM) ± S.D., subtype A2/D, NIH # 11906, ENV QG393.60M.ENV.B7) was 1.4 ± 0.5 µM and the IC50 ([3]; read-out: IC50 (μM) ± S.D., subtype A, NIH # 11890, ENV QF495.23M.ENV.A1) was 0.86 ± 0.4 µM. The IC50 ([3]; read-out: IC50 (μM) ± S.D., subtype A, NIH # 11891, ENV QF495.23M.ENV.A3) was 1.3 ± 0.3 µM, the IC50 ([3]; read-out: IC50 (μM) ± S.D., subtype A, NIH # 11892, ENV QF495.23M.ENV.B2) was 1.1 ± 0.2 µM and the IC50 ([3]; read-out: IC50 (μM) ± S.D., subtype A/D, NIH # 11903, ENV QA790.2041.ENV.C8) was 1.6 ± 0.2 µM. It also gave an IC50 ([3]; read-out: IC50 (μM) ± S.D., subtype B, ENV B41) of 1.1 ± 0.4 µM, an IC50 ([3]; read-out: IC50 (μM) ± S.D., subtype B, NIH # 11018, ENV QH0692, clone 42) of 0.9 ± 0.3 µM and an IC50 ([3]; read-out: IC50 (μM) ± S.D., subtype B, NIH # 11022, ENV PVO, clone 4) of 1.1 ± 0.2 µM. The IC50 ([3]; read-out: IC50 (μM) ± S.D., subtype B, NIH # 11024, ENV AC10.0, clone 29) was 0.74 ± 0.25 µM, the IC50 ([3]; read-out: IC50 (μM) ± S.D., subtype B, NIH # 11038, ENV pCAAN5342 clone A2) was 0.64 ± 0.01 µM and the IC50 ([3]; subtype A, NIH # 11889, ENV QB726.70M.ENV.B3, read-out: IC50 (μM) ± S.D.) was 2.4 ± 0.9 µM. The IC50 [5] was 7.6 µM.
